Test results taken from PubChem BioAssay AID1963434 (Molecular Pharmacology Branch, DTP, NCI, 2024).

Tested on: 755483-174-R-J1-PDC complex spheroid growth, percent test/control
Assay: Anticancer human tumor 755483-174-R-J1-PDC patient-derived rhabdomyosarcoma cell line growth inhibition [Asc]
Settings: for IC50: curve of first compound; for viability, T/C: stronger effect = lower value
Description: Multicellular complex tumor spheroid response to apoptosis pathway targeting inhibitors Alrizomadlin, Pelcitoclax, and Dasminapant in combination with a variety of drugs and investigational agents in selected tumor cell lines
The MDM2 inhibitor alrizomadlin, the Bcl-2/Bcl-xL inhibitor pelcitoclax, and the IAPs inhibitor dasminapant were evaluated both individually and in combination with standard of care and investigational anticancer small molecules within a complex spheroid model of solid tumors. . Complex spheroids include a stromal component modeled by human endothelial cells (HUVEC) and fibroblasts modeled by human mesenchymal stem cells (MSCs). The concentration ranges selected for each drug and investigational agent were based upon clinically achievable concentrations if the clinical Cmax of the agent was known.
Compounds. The drugs and investigational agents: alrizomadlin (APG-115; NSC831270), pelcitoclax (APG-1252; NSC835773), dasminapant (APG-1387;NSC834197), TAK-243 (NSC785004), copanlisib (NSC809693), olaparib (NSC753686), talazoparib (NSC767125), cobimetinib (NSC 768068), eltanexor (KPT-8602, NSC 794443), abemaciclib (NSC 768073), sotorasib (NSC818433), adagrasib (NSC 831453), MRTX-1133 (NSC 836407), Iadademestat (ORY1001, NSC 806812), and RMC-4630 (NSC839698), were obtained from the NCI Developmental Therapeutics Program Chemical Repository. The FDA-approved anticancer drug set is available from the Developmental Therapeutics Program at https://dtp.cancer.gov/organization/dscb/obtaining/available plates.htm. […] The stock solutions were prepared in dimethyl sulfoxide (DMSO, Sigma-Aldrich, St. Louis, MO, cat. D2650) at 800-fold the tested concentration and stored at -70 degrees C prior to their use. All drugs and investigational agents were tested over a range starting from a high concentration at or near the clinical Cmax and decreasing in half-log increments. If the clinical Cmax for an agent had not been determined, the highest concentration tested was 10 microM.
The patient-derived cancer (PDC) cell lines include five colon adenocarcinomas: 186277-243-T-J2-PDC, 616215-338-R-J1-PDC, 439559-082-T-J2-PDC, 463943-066-T-J2-PDC, and 519858-162-T-J1-PDC; three pancreatic carcinomas: 323965-272-R-J2-PDC, 521955-158-R6-J3-PDC, and 521955-158-R2-J5-PDC; two uterine sarcomas: 327498-152-R-J2-PDC and 993429-296-R-J1-PDC; two rhabdomyosarcomas: 755483-174-R-J1-PDC and 772245-204-R-J1-PDC; two soft tissue sarcomas: 126254-015-R-J1-PDC and 494315-158-R-J1-PDC; two malignant fibrous histiocytomas: 317291-083-R-J1-PDC and 596521-263-R-J1-PDC; two breast carcinomas: 171881-019-R-J1-PDC and 885512-296-R-J2-PDC; and one ovarian carcinoma: 6556581-035-R-J-PDC were obtained from the NCI PDMR, (https://pdmr.cancer.gov). The established cell lines HSSY-2 synovial sarcoma (RRID:CVCL 8719), SYO-1 synovial sarcoma (RRID:CVCL_7146), MPNST malignant peripheral neural sheath tumor were obtained from the Sloan Kettering Institute. The following established cell lines were purchased from the American Type Culture Collection (ATCC, Manassas, VA), Sor the received from the NCI repository:, PANC-1 pancreatic carcinoma (CRL-1469, RRID:CVCL_0480), OVCAR-5 ovarian carcinoma (RRID:CVCL_1628), OVCAR-8 ovarian carcinoma (RRID:CVCL_1629), , MCF-7 breast carcinoma (CRL-12584, RRID:CVCL_0031), MDA-MB-231 breast carcinoma (CRL-12532, RRID:CVCL_0062), NCI-H1876 small cell lung carcinoma (CRL-5902, RRID:CVCL_1503), NCI-H510A small cell lung carcinoma (HTB-184, RRID:CVCL_1565), NCI-H1417 (CRL-5869, RRID:CVCL_1469), and NCI-H196 small cell lung carcinoma (CRL-5823, RRID:CVCL_1509). Dr. Peter Houghton (Greehey Children's Cancer Research Institute, University of Texas Health Science Center, San Antonio, TX) provided Rh-18 rhabdomyosarcoma (RRID:CVCL_1659). Pooled donor human umbilical vein endothelial cells (HUVEC, Lonza, cat. CC-2519) and human mesenchymal stem cells (hMSC, Lonza, cat. PT-2501) were purchased from Lonza (Walkersville, MD).
Cell Culture. […]

[1] = second compound 0.03 µM, first compound 0.00316 µM
[2] = second compound 0.03 µM, first compound 0.01 µM
[3] = second compound 0.03 µM, first compound 0.0316 µM
[4] = second compound 0.03 µM, first compound 0.1 µM
[5] = second compound 0.0949 µM, first compound 0.00316 µM
[6] = second compound 0.0949 µM, first compound 0.01 µM
[7] = second compound 0.0949 µM, first compound 0.0316 µM
[8] = second compound 0.0949 µM, first compound 0.1 µM
[9] = second compound 0.3 µM, first compound 0.00316 µM
[10] = second compound 0.3 µM, first compound 0.01 µM
[11] = second compound 0.3 µM, first compound 0.0316 µM
[12] = second compound 0.3 µM, first compound 0.1 µM
[13] = second compound 0.949 µM, first compound 0.00316 µM
[14] = second compound 0.949 µM, first compound 0.01 µM
[15] = second compound 0.949 µM, first compound 0.0316 µM
[16] = second compound 0.949 µM, first compound 0.1 µM
[17] = second compound 3 µM, first compound 0.00316 µM
[18] = second compound 3 µM, first compound 0.01 µM
[19] = second compound 3 µM, first compound 0.0316 µM
[20] = second compound 3 µM, first compound 0.1 µM
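Also: spheroids exposed to compounds for seven days before readout.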

## CCN1CCN(Cc2ccc(Nc3ncc(F)c(-c4cc(F)c5nc(C)n(C(C)C)c5c4)n3)nc2)CC1 + CCN1C(C(=O)NC23CCC(C(=O)O)(CC2)CC3)C(c2cccc(Cl)c2F)C2(C(=O)Nc3cc(Cl)ccc32)C12CCCCC2
Second compound 0.03 µM
  IC50: > 1000 nM
Second compound 0.0949 µM
  IC50: > 1000 nM
Second compound 0.3 µM
  IC50: > 1000 nM
Second compound 0.949 µM
  IC50: > 1000 nM
Second compound 3 µM
  IC50: > 1000 nM
[1]
  viability, T/C: 103%
[2]
  viability, T/C: 97.3%
[3]
  viability, T/C: 112%
[4]
  viability, T/C: 127%
Second compound 0.03 µM, first compound 0.316 µM
  viability, T/C: 108%
Second compound 0.03 µM, first compound 1 µM
  viability, T/C: 133%
[5]
  viability, T/C: 89.3%
[6]
  viability, T/C: 116%
[7]
  viability, T/C: 115%
[8]
  viability, T/C: 109%
Second compound 0.0949 µM, first compound 0.316 µM
  viability, T/C: 138%
Second compound 0.0949 µM, first compound 1 µM
  viability, T/C: 116%
[9]
  viability, T/C: 87%
[10]
  viability, T/C: 103%
[11]
  viability, T/C: 124%
[12]
  viability, T/C: 113%
Second compound 0.3 µM, first compound 0.316 µM
  viability, T/C: 124%
Second compound 0.3 µM, first compound 1 µM
  viability, T/C: 127%
[13]
  viability, T/C: 98.7%
[14]
  viability, T/C: 114%
[15]
  viability, T/C: 122%
[16]
  viability, T/C: 86.8%
Second compound 0.949 µM, first compound 0.316 µM
  viability, T/C: 129%
Second compound 0.949 µM, first compound 1 µM
  viability, T/C: 137%
[17]
  viability, T/C: 107%
[18]
  viability, T/C: 109%
[19]
  viability, T/C: 98.6%
[20]
  viability, T/C: 121%
Second compound 3 µM, first compound 0.316 µM
  viability, T/C: 126%
Second compound 3 µM, first compound 1 µM
  viability, T/C: 113%

## NC(=O)C(=Cn1cnc(-c2cc(C(F)(F)F)cc(C(F)(F)F)c2)n1)c1cncnc1 + CCN1C(C(=O)NC23CCC(C(=O)O)(CC2)CC3)C(c2cccc(Cl)c2F)C2(C(=O)Nc3cc(Cl)ccc32)C12CCCCC2
Second compound 0.03 µM
  IC50: 4.97 nM
Second compound 0.0949 µM
  IC50: 3.99 nM
Second compound 0.3 µM
  IC50: 6.47 nM
Second compound 0.949 µM
  IC50: 5.41 nM
Second compound 3 µM
  IC50: 3.15 nM
Second compound 0.03 µM, first compound 0.000949 µM
  viability, T/C: 92%
Second compound 0.03 µM, first compound 0.003 µM
  viability, T/C: 71.4%
Second compound 0.03 µM, first compound 0.00949 µM
  viability, T/C: 22.4%
Second compound 0.03 µM, first compound 0.03 µM
  viability, T/C: 12.8%
Second compound 0.03 µM, first compound 0.0949 µM
  viability, T/C: 7.75%
Second compound 0.03 µM, first compound 0.3 µM
  viability, T/C: 7.18%
Second compound 0.0949 µM, first compound 0.000949 µM
  viability, T/C: 84%
Second compound 0.0949 µM, first compound 0.003 µM
  viability, T/C: 56%
Second compound 0.0949 µM, first compound 0.00949 µM
  viability, T/C: 31.7%
Second compound 0.0949 µM, first compound 0.03 µM
  viability, T/C: 14.7%
Second compound 0.0949 µM, first compound 0.0949 µM
  viability, T/C: 8.83%
Second compound 0.0949 µM, first compound 0.3 µM
  viability, T/C: 5.38%
Second compound 0.3 µM, first compound 0.000949 µM
  viability, T/C: 74.2%
Second compound 0.3 µM, first compound 0.003 µM
  viability, T/C: 75.5%
Second compound 0.3 µM, first compound 0.00949 µM
  viability, T/C: 37.6%
Second compound 0.3 µM, first compound 0.03 µM
  viability, T/C: 13.3%
Second compound 0.3 µM, first compound 0.0949 µM
  viability, T/C: 7.32%
Second compound 0.3 µM, first compound 0.3 µM
  viability, T/C: 4.64%
Second compound 0.949 µM, first compound 0.000949 µM
  viability, T/C: 83.9%
Second compound 0.949 µM, first compound 0.003 µM
  viability, T/C: 66.7%
Second compound 0.949 µM, first compound 0.00949 µM
  viability, T/C: 34.4%
Second compound 0.949 µM, first compound 0.03 µM
  viability, T/C: 11.9%
Second compound 0.949 µM, first compound 0.0949 µM
  viability, T/C: 8.43%
Second compound 0.949 µM, first compound 0.3 µM
  viability, T/C: 5.55%
Second compound 3 µM, first compound 0.000949 µM
  viability, T/C: 72.8%
Second compound 3 µM, first compound 0.003 µM
  viability, T/C: 49.2%
Second compound 3 µM, first compound 0.00949 µM
  viability, T/C: 32.9%
Second compound 3 µM, first compound 0.03 µM
  viability, T/C: 16%
Second compound 3 µM, first compound 0.0949 µM
  viability, T/C: 5.81%
Second compound 3 µM, first compound 0.3 µM
  viability, T/C: 6.67%

## NC1CCC(NC2CC2c2ccccc2)CC1 (stereo not given) + CCN1C(C(=O)NC23CCC(C(=O)O)(CC2)CC3)C(c2cccc(Cl)c2F)C2(C(=O)Nc3cc(Cl)ccc32)C12CCCCC2
Second compound 0.03 µM
  IC50: > 100 nM
Second compound 0.0949 µM
  IC50: > 100 nM
Second compound 0.3 µM
  IC50: > 100 nM
Second compound 0.949 µM
  IC50: > 100 nM
Second compound 3 µM
  IC50: > 100 nM
Second compound 0.03 µM, first compound 0.000316 µM
  viability, T/C: 93.2%
Second compound 0.03 µM, first compound 0.001 µM
  viability, T/C: 67.1%
[1]
  viability, T/C: 129%
[2]
  viability, T/C: 77.7%
[3]
  viability, T/C: 87%
[4]
  viability, T/C: 65.3%
Second compound 0.0949 µM, first compound 0.000316 µM
  viability, T/C: 90%
Second compound 0.0949 µM, first compound 0.001 µM
  viability, T/C: 100%
[5]
  viability, T/C: 93.2%
[6]
  viability, T/C: 96.4%
[7]
  viability, T/C: 85.1%
[8]
  viability, T/C: 68.8%
Second compound 0.3 µM, first compound 0.000316 µM
  viability, T/C: 110%
Second compound 0.3 µM, first compound 0.001 µM
  viability, T/C: 105%
[9]
  viability, T/C: 112%
[10]
  viability, T/C: 87.3%
[11]
  viability, T/C: 95.1%
[12]
  viability, T/C: 112%
Second compound 0.949 µM, first compound 0.000316 µM
  viability, T/C: 108%
Second compound 0.949 µM, first compound 0.001 µM
  viability, T/C: 103%
[13]
  viability, T/C: 92%
[14]
  viability, T/C: 98.5%
[15]
  viability, T/C: 78.3%
[16]
  viability, T/C: 88.5%
Second compound 3 µM, first compound 0.000316 µM
  viability, T/C: 92.2%
Second compound 3 µM, first compound 0.001 µM
  viability, T/C: 94%
[17]
  viability, T/C: 90.2%
[18]
  viability, T/C: 61.6%
[19]
  viability, T/C: 86.6%
[20]
  viability, T/C: 88.5%
